# Measured values published in US11845760B2, “PRMT5 inhibitors” (AMGEN INC., priority 2020, dated 2023).
# Like-named read-outs stand apart in the source and are kept apart here.
# Columns and labels:
# HCT116 MTAP null cells = test: HCT116 MTAP null cell line proliferation (CellTiter-Glo cell viability, 6 days); format: cell-based; settings: HCT116 MTAP null cells, 6 days of treatment, CellTiter-Glo cell viability, read-out: HCT-116 MTAP null IC50
# Procedure: (§1) To assess selective anti-proliferative activity of compounds of the invention in cells that have loss expression of MTAP, an HCT-116 isogenic cell line pair was utilized where one cell line was engineered to genetically knockout both MTAP alleles. Cell viability was then assessed in both the parent HCT-116 cell line and the MTAP null cell line after 6 days of treatment with compounds of the present invention. Selective anti-proliferative activity in the MTAP null cell line indicates MTA-cooperative inhibition of PRMT5 and ability to inhibit growth of cancer cells that have loss of MTAP.
# (§2) HCT116 MTAP null and WT cells were seeded in 96-well tissue culture plates in RPMI 1640 media+10% fetal bovine serum. Plates were incubated overnight at 37° C. and 5% CO2. Cells were then treated with an 8- or 9-point serial dilution of compound, using a top concentration of 1, or 10 μM, 1:3 serial dilution steps and, a DMSO-only control. Cells were incubated in the presence of drug for 6 days. Effects on cell viability were measured with the CellTiter-Glo® Luminescent Cell Viability Assay (Promega) per manufacturer's recommendation. Assay plates were read on an EnVision™ Multilabel Reader using the Ultra-Sensitive luminescence module. IC50 values were calculated with GraphPad Prism v 5.01 using symmetrical sigmoidal dose-response least squares fit with Hill slope fixed to −1 and top constrain to 100% or GeneData Screener using a 4-parameter logistic model to fit dose response curves.
# (§3) Alternatively, compounds could be assayed with a 384 well plate format:
# (§4) Compounds were pre-spotted into 384 well plates with a 22-point serial dilution of compound, using a top concentration of 10 or 50 μM, 1:2 serial dilution steps and, a DMSO-only control. HCT116 MTAP null and WT cells were then seeded as above and after 6 days effects on cell viability were measured with the CellTiter-Glo® Luminescent Cell Viability Assay (Promega). Assay plates were read as above and IC50 values were calculated with GeneData Screener using a 4-parameter logistic model to fit dose response curves. The reported IC50 represents the value where the curve transits 50% of control.
# HCT116 WT cells = test: HCT116 WT cell line proliferation (CellTiter-Glo cell viability, 6 days); format: cell-based; settings: HCT116 WT (parent) cells, 6 days of treatment, CellTiter-Glo cell viability, read-out: HCT-116 WT IC50
# Procedure: as §1, §2, §3, §4
"IC50 (HCT116 MTAP null cells; HCT116-MTAP null, 144 h) [nM]","IC50 (HCT116 WT cells; Homo sapiens, HCT-116, 144 h) [nM]",IC50 (HCT116 MTAP null cells) [nM],IC50 (HCT116 WT cells) [nM],Compound
145,5580,,,"CCOc1ccc([C@@H]2COC[C@H](C)N2C(=O)c2ccc3nc(N)c4c(c3c2)COC4)nn1 (racemic) [Example 319, (4-amino-1,3-dihydrofuro[3,4-c]quinolin-8-yl)((3R,5S)-3-(6-ethoxy-3-pyridazinyl)-5-methyl-4-morpholinyl)methanone and (4-amino-1,3-dihydrofuro[3,4-c]quinolin-8-yl)((3S,5R)-3-(6-ethoxy-3-pyridazinyl)-5-methyl-4-morpholinyl)methanone]"
101,3680,,,"CCOc1ccc([C@@H]2COC[C@H](C)N2C(=O)c2cc3c4c(c(N)nc3cn2)COC4)nn1 (racemic) [Example 320, (4-amino-1,3-dihydrofuro[3,4-c][1,7]naphthyridin-8-yl)((3R,5S)-3-(6-ethoxy-3-pyridazinyl)-5-methyl-4-morpholinyl)methanone and (4-amino-1,3-dihydrofuro[3,4-c][1,7]naphthyridin-8-yl)((3S,5R)-3-(6-ethoxy-3-pyridazinyl)-5-methyl-4-morpholinyl)methanone]"
93,4960,,,"CCOc1ccc([C@@H]2COC[C@H](C)N2C(=O)c2ccc3nc(N)c4c(c3c2)CO[C@@H]4C)nn1 (racemic) [Example 321, ((3R)-4-amino-3-methyl-1,3-dihydrofuro[3,4-c]quinolin-8-yl)((3R,5S)-3-(6-ethoxy-3-pyridazinyl)-5-methyl-4-morpholinyl)methanone and ((3R)-4-amino-3-methyl-1,3-dihydrofuro[3,4-c]quinolin-8-yl)((3S,5R)-3-(6-ethoxy-3-pyridazinyl)-5-methyl-4-morpholinyl)methanone]"
6,279,,,"CCOc1ccc([C@@H]2COC[C@H](C)N2C(=O)c2cc3c4c(c(N)nc3cc2Cl)COC4)nn1 (racemic) [Example 322, (4-amino-7-chloro-1,3-dihydrofuro[3,4-c]quinolin-8-yl)((3R,5S)-3-(6-ethoxy-3-pyridazinyl)-5-methyl-4-morpholinyl)methanone and (4-amino-7-chloro-1,3-dihydrofuro[3,4-c]quinolin-8-yl)((3S,5R)-3-(6-ethoxy-3-pyridazinyl)-5-methyl-4-morpholinyl)methanone]"
72,2580,,,"CCOc1ccc([C@@H]2COC[C@H](C)N2C(=O)c2cc3c4c(c(N)nc3cn2)[C@@H](C)OC4)nn1 (racemic) [Example 326, ((3R)-4-amino-3-methyl-1,3-dihydrofuro[3,4-c][1,7]naphthyridin-8-yl)((3R,5S)-3-(6-ethoxy-3-pyridazinyl)-5-methyl-4-morpholinyl)methanone and ((3R)-4-amino-3-methyl-1,3-dihydrofuro[3,4-c][1,7]naphthyridin-8-yl)((3S,5R)-3-(6-ethoxy-3-pyridazinyl)-5-methyl-4-morpholinyl)methanone]"
43,2400,,,"CCOc1ccc([C@@H]2COC[C@H](C)N2C(=O)c2cc3c4c(c(N)nc3cc2F)COC4)nn1 (racemic) [Example 327, (4-amino-7-fluoro-1,3-dihydrofuro[3,4-c]quinolin-8-yl)((3R,5S)-3-(6-ethoxy-3-pyridazinyl)-5-methyl-4-morpholinyl)methanone and (4-amino-7-fluoro-1,3-dihydrofuro[3,4-c]quinolin-8-yl)((3S,5R)-3-(6-ethoxy-3-pyridazinyl)-5-methyl-4-morpholinyl)methanone]"
49,1000,,,"C[C@H]1COC[C@@H](c2ccc(OC(F)(F)F)cc2F)N1C(=O)c1cc2c3c(c(N)nc2cn1)COC3 (racemic) [Example 328, (4-amino-1,3-dihydrofuro[3,4-c][1,7]naphthyridin-8-yl)((3R,5S)-3-(2-fluoro-4-(trifluoromethoxy)phenyl)-5-methyl-4-morpholinyl)methanone and (4-amino-1,3-dihydrofuro[3,4-c][1,7]naphthyridin-8-yl)((3S,5R)-3-(2-fluoro-4-(trifluoromethoxy)phenyl)-5-methyl-4-morpholinyl)methanone]"
50,1520,,,"C[C@H]1OCc2c1c(N)nc1ccc(C(=O)N3[C@@H](C)COC[C@H]3c3ccc(OC(F)(F)F)cc3F)cc21 (racemic) [Example 329, ((3R)-4-amino-3-methyl-1,3-dihydrofuro[3,4-c]quinolin-8-yl)((3R,5S)-3-(2-fluoro-4-(trifluoromethoxy)phenyl)-5-methyl-4-morpholinyl)methanone and ((3R)-4-amino-3-methyl-1,3-dihydrofuro[3,4-c]quinolin-8-yl)((3S,5R)-3-(2-fluoro-4-(trifluoromethoxy)phenyl)-5-methyl-4-morpholinyl)methanone]"
,,58,1440,"C[C@@H]1COC[C@H](c2ccc(C(F)(F)F)cc2F)N1C(=O)c1ccc2nc(N)c3c(c2c1)COC3 (racemic) [Example 333, (4-amino-1,3-dihydrofuro[3,4-c]quinolin-8-yl)((3R,5S)-3-(2-fluoro-4-(trifluoromethyl)phenyl)-5-methyl-4-morpholinyl)methanone and (4-amino-1,3-dihydrofuro[3,4-c]quinolin-8-yl)((3S,5R)-3-(2-fluoro-4-(trifluoromethyl)phenyl)-5-methyl-4-morpholinyl)methanone]"
27,706,,,"C[C@H]1COC[C@@H](c2ccc(C(F)(F)F)cc2F)N1C(=O)c1cc2c3c(c(N)nc2cn1)COC3 (racemic) [Example 334, (4-amino-1,3-dihydrofuro[3,4-c][1,7]naphthyridin-8-yl)((3R,5S)-3-(2-fluoro-4-(trifluoromethyl)phenyl)-5-methyl-4-morpholinyl)methanone and (4-amino-1,3-dihydrofuro[3,4-c][1,7]naphthyridin-8-yl)((3S,5R)-3-(2-fluoro-4-(trifluoromethyl)phenyl)-5-methyl-4-morpholinyl)methanone]"
100,5020,,,"C[C@H]1OCc2c1c(N)nc1cnc(C(=O)N3CCOC[C@@H]3c3ccc(C(F)(F)F)cc3)cc21 (racemic) [Example 338, ((3R)-4-amino-3-methyl-1,3-dihydrofuro[3,4-c][1,7]naphthyridin-8-yl)((3S)-3-(4-(trifluoromethyl)phenyl)-4-morpholinyl)methanone and ((3S)-((4-amino-3-methyl-1,3-dihydrofuro[3,4-c][1,7]naphthyridin-8-yl)((3S)-3-(4-(trifluoromethyl)phenyl)-4-morpholinyl)methanone]"
20,497,,,"C[C@H]1COC[C@@H](c2ccc(C(F)(F)F)cn2)N1C(=O)c1cc2c3c(c(N)nc2cn1)COC3 (racemic) [Example 339, (4-amino-1,3-dihydrofuro[3,4-c][1,7]naphthyridin-8-yl)((3R,5S)-3-methyl-5-(5-(trifluoromethyl)-2-pyridinyl)-4-morpholinyl)methanone and (4-amino-1,3-dihydrofuro[3,4-c][1,7]naphthyridin-8-yl)((3S,5R)-3-methyl-5-(5-(trifluoromethyl)-2-pyridinyl)-4-morpholinyl)methanone]"
71,6440,,,"C[C@H]1COC[C@@H](c2ccc(C(F)(F)F)nc2)N1C(=O)c1cc2c3c(c(N)nc2cn1)COC3 (racemic) [Example 340, (4-amino-1,3-dihydrofuro[3,4-c][1,7]naphthyridin-8-yl)((3R,5S)-3-methyl-5-(6-(trifluoromethyl)-3-pyridinyl)-4-morpholinyl)methanone and (4-amino-1,3-dihydrofuro[3,4-c][1,7]naphthyridin-8-yl)((3S,5R)-3-methyl-5-(6-(trifluoromethyl)-3-pyridinyl)-4-morpholinyl)methanone]"
871,13200,,,"Nc1nc2ccc(C(=O)N3CCOCC3c3ccc(F)c(OC(F)(F)F)c3)cc2c2c1COC2 (racemic) [Example 341, (4-amino-1,3-dihydrofuro[3,4-c]quinolin-8-yl)((3R)-3-(4-fluoro-3-(trifluoromethoxy)phenyl)-4-morpholinyl)methanone and (4-amino-1,3-dihydrofuro[3,4-c]quinolin-8-yl)((3S)-3-(4-fluoro-3-(trifluoromethoxy)phenyl)-4-morpholinyl)methanone]"
